Experimental data published in US5756765A, “2- (2-Substituted pyrrolidin-4-yl) thio-carbapenem derivatives” (Chong Kun Dang Corp., priority 1992, dated 1998).
Converted amounts (≈) assume the structure as drawn. Like-named read-outs stand apart in the source and are kept apart here.

How the values were obtained:
[1] = Test 2: Stability test against kidney dehydrogenase DHP-I; type: in vitro ADME, pig; details: kidney dhp-i enzyme; for remaining at 5 min / remaining at 10 min / remaining at 20 min / remaining at 40 min / remaining at 80 min / remaining at 2 h: pig kidney enzyme, 10 mM phosphate buffer, 37° C., read-out: percentage of the remaining amount (stability on DHP-I enzyme); for remaining at 2 h: 120 minutes
Description: Test 2: Stability Test Against kidney Dehydrogenase DHP-I
Each of the novel compounds of Examples 1,2,3 and 4 of the present invention and the comparative compound imipenem was dissolved in 10 mM phosphate buffer and the resulting solution was mixed with dehydrogenase enzyme solution extracted from pig kidney in a ratio of equivalent amounts. The resulting mixture was incubated at 37° C. for 2 hours, during which the decomposition degree of the compound was measured. The result thereof was given in the following Table 2 in terms of percentage of the remaining amount on the basis of the initially added amount of the compound.

Escherichia coil TEM = assay: Test 1: In vitro antibacterial activity (MIC), Mueller Hinton Agar dilution; type: cell-based; details: 18 h, read-out: Minimal Inhibitory Concentration (MIC)
Description: (§1) Test 1: In Vitro Antibacterial Activity Test
(§2) The compounds of Examples 1,2,3 and 4 according to the present invention were used as a test compound and imipenem was used as a comparative compound.
(§3) The test compounds and comparative compound were gradually diluted in Mueller Hinton Agar(MHA) medium. Test strains as listed in the following table were inoculated into the medium in an amount of 10^6 viable cells/ml and then incubated at 37° C. for 18 hours. Then, MIC value was measured and expressed in terms of μg/ml.

Klebsiella oxytoca 1082E = assay: as above; type: cell-based; details: read-out: Minimal Inhibitory Concentration (MIC)
Description: as §1, §2, §3

[2] = tested on: Klebsiella aerogenes 1522E; assay: as above; type: cell-based; details: read-out: Minimal Inhibitory Concentration (MIC)
Description: as §1, §2, §3

[3] = tested on: Staphylococcus aureus SG 511; assay: as above; type: cell-based; details: read-out: Minimal Inhibitory Concentration (MIC)
Description: as §1, §2, §3

[4] = tested on: Pseudomonas aeruginosa 9027; assay: as above; type: cell-based; details: read-out: Minimal Inhibitory Concentration (MIC)
Description: as §1, §2, §3

[5] = tested on: Enterobacter cloacae 1321E; assay: as above; type: cell-based; details: read-out: Minimal Inhibitory Concentration (MIC)
Description: as §1, §2, §3

Salmonella typhimurium = assay: as above; type: cell-based; details: Salmonella enterica, read-out: Minimal Inhibitory Concentration (MIC)
Description: as §1, §2, §3

[6] = tested on: Pseudomonas aeruginosa 1592E; assay: as above; type: cell-based; details: read-out: Minimal Inhibitory Concentration (MIC)
Description: as §1, §2, §3

Escherichia coli DC 2 = assay: as above; type: cell-based; details: read-out: Minimal Inhibitory Concentration (MIC)
Description: as §1, §2, §3

[7] = tested on: dehydrogenase-1(DHP-I enzyme) present in kidney; details: cited from earlier work
[8] = clinically administered; cited from earlier work
[9] = tested on: gram-positive and gram-negative bacteria; details: cited from earlier work
[10] = substances produced by DHP-I enzyme decomposition; cited from earlier work
Pseudomonas aeruginosa = details: compared with thienamycin; cited from earlier work
[11] = tested on: DHP-I enzyme present in human kidney; details: cited from earlier work
[12] = tested on: various bacteria including beta-lactamase producing strains; details: compared with thienamycin; cited from earlier work
[13] = Klebsiella oxytoca 1082E, 10^6 viable cells/ml, 37° C., 18 hours
[14] = Klebsiella aerogenes 1522E, 10^6 viable cells/ml, 37° C., 18 hours
[15] = SG511, Staphylococcus aureus SG 511, 10^6 viable cells/ml, 37° C., 18 hours
[16] = Pseudomonas aeruginosa 9027, 10^6 viable cells/ml, 37° C., 18 hours
[17] = Enterobacter cloacae 1321E, 10^6 viable cells/ml, 37° C., 18 hours
[18] = Salmonella typhimurium, 10^6 viable cells/ml, 37° C., 18 hours
[19] = Pseudomonas aeruginosa 1592E, 10^6 viable cells/ml, 37° C., 18 hours
[20] = DC2, Escherichia coli DC 2, 10^6 viable cells/ml, 37° C., 18 hours

`C[C@@H](O)[C@H]1C(=O)N2C(C(=O)O)=C(S[C@@H]3CN[C@H](CSCCC(=O)NCC#N)C3)[C@H](C)[C@H]12` [Example 2, (1R,5S,6S)-2-[(2S,4S)-2-{(cyanomethylcarbamoyl)ethylmercaptomethyl}pyrrolidin-4-yl]thio-6-[(R)-1-hydroxyethyl]1-methyl-1-carbapen-2-em-3-carboxylic acid] gave a remaining at 5 min [1] of 100%, a remaining at 10 min [1] of 99.4% and a remaining at 20 min [1] of 98.6%. It also gave a remaining at 40 min [1] of 97.2%, a remaining at 80 min [1] of 96.3% and a remaining at 2 h [1] of 96.3%. It also gave an MIC (Escherichia coil TEM) of 0.05 µg/mL (≈ 0.107 µM), an MIC (Klebsiella oxytoca 1082E; [13]) of 0.2 µg/mL (≈ 0.427 µM) and an MIC [2, 14] of 0.1 µg/mL (≈ 0.213 µM). For the same compound, the MIC [3, 15] was 0.05 µg/mL (≈ 0.107 µM), the MIC [4, 16] was 0.78 µg/mL (≈ 1.66 µM) and the MIC [5, 17] was 0.05 µg/mL (≈ 0.107 µM). For the same compound, the MIC (Salmonella typhimurium; [18]) was 0.1 µg/mL (≈ 0.213 µM), the MIC [6, 19] was 0.78 µg/mL (≈ 1.66 µM) and the MIC (Escherichia coli DC 2; [20]) was 0.1 µg/mL (≈ 0.213 µM).

In the case of `C[C@@H](O)[C@H]1C(=O)N2C(C(=O)O)=C(SCCN)CC12` (stereo partly drawn) [thienamycin, [5R-[5α, 6α(R*)]]-3-[(2-aminoethyl)-thio]-6-(1-hydroxyethyl)-7-oxo-1-azabicyclo[3.2.0]-hept-2-ene-2-carboxylic acid], the “decomposition in vivo by DHP-I, in words” value [7] is given as “can be readily decomposed in vivo by dehydrogenase-1(DHP-I enzyme) present in kidney”, the “recovery rate in urine” value [8] is given as “extremely low” and the “antimicrobial activity, in words” value [9] is given as “broad and potent antimicrobial activity against gram-positive and gram-negative bacteria”.

For `C[C@@H](O)[C@H]1C(=O)N2C(C(=O)O)=C(S[C@@H]3CN[C@H](CSCCC(=O)NCCO)C3)[C@H](C)[C@H]12` [Example 3, (1R,5S,6S)-2-[(2S,4S)-2-{(hydroxyethylcarbamoyl)ethylmercaptomethyl}pyrrolidin-4-yl]thio-6-[(R)-1-hydroxyethyl]-1-methyl-1-carbapen-2-em-3-carboxylicacid], the remaining at 5 min [1] was 99.7%, the remaining at 10 min [1] was 99.2% and the remaining at 20 min [1] was 98.9%. The remaining at 40 min [1] was 98%, the remaining at 80 min [1] was 97.2% and the remaining at 2 h [1] was 97%. The MIC (Escherichia coil TEM) was 0.05 µg/mL (≈ 0.106 µM), the MIC (Klebsiella oxytoca 1082E; [13]) was 0.2 µg/mL (≈ 0.422 µM) and the MIC [2, 14] was 0.1 µg/mL (≈ 0.211 µM). For the same compound, the MIC [3, 15] was 0.05 µg/mL (≈ 0.106 µM), the MIC [4, 16] was 0.39 µg/mL (≈ 0.823 µM) and the MIC [5, 17] was 0.05 µg/mL (≈ 0.106 µM). The MIC (Salmonella typhimurium; [18]) was 0.1 µg/mL (≈ 0.211 µM), the MIC [6, 19] was 0.39 µg/mL (≈ 0.823 µM) and the MIC (Escherichia coli DC 2; [20]) was 0.1 µg/mL (≈ 0.211 µM).

Compound `C[C@@H](O)[C@H]1C(=O)N2C(C(=O)O)=C(S[C@@H]3CN[C@H](CSCCC(=O)NCC(N)=O)C3)[C@H](C)[C@H]12` [Example 4, (1R,5S,6S)-2-[(2S,4S)-2-{(2-carbamoylmethylcarbamoyl)ethylmercaptomethyl}pyrrolidin-4-yl]thio-6-[(R)-1-hydroxyethyl]-1-methyl-1-carbapen-2-em-3-carboxylic acid] has a remaining at 5 min [1] of 100%, a remaining at 10 min [1] of 99.8% and a remaining at 20 min [1] of 99%. For the same compound, the remaining at 40 min [1] was 99.8%, the remaining at 80 min [1] was 98.8% and the remaining at 2 h [1] was 98.8%. The MIC (Escherichia coil TEM) was 0.1 µg/mL (≈ 0.206 µM), the MIC (Klebsiella oxytoca 1082E; [13]) was 0.2 µg/mL (≈ 0.411 µM) and the MIC [2, 14] was 0.1 µg/mL (≈ 0.206 µM). It also gave an MIC [3, 15] of 0.05 µg/mL (≈ 0.103 µM), an MIC [4, 16] of 0.1 µg/mL (≈ 0.206 µM) and an MIC [5, 17] of 0.05 µg/mL (≈ 0.103 µM). It also gave an MIC (Salmonella typhimurium; [18]) of 0.2 µg/mL (≈ 0.411 µM), an MIC [6, 19] of 0.78 µg/mL (≈ 1.6 µM) and an MIC (Escherichia coli DC 2; [20]) of 0.1 µg/mL (≈ 0.206 µM).

In the case of `C[C@@H](O)[C@H]1C(=O)N2C(C(=O)O)=C(S[C@@H]3CN[C@H](CSCC(=O)NCC#N)C3)[C@H](C)[C@H]12` [Example 1, (1R,5S,6S)-2-[(2S,4S)-2-{(cyanomethylcarbamoyl)methylmercaptomethyl}pyrrolidin-4-yl]thio-6-[(R)-1-hydroxyethyl]-1-methyl-1-carbapen-2-em-3-carboxylicacid], the remaining at 5 min [1] is reported as 99.7%, the remaining at 10 min [1] is reported as 99.4% and the remaining at 20 min [1] is reported as 99.1%. For the same compound, the remaining at 40 min [1] was 98.1%, the remaining at 80 min [1] was 97.5% and the remaining at 2 h [1] was 97.2%. The MIC (Escherichia coil TEM) was 0.1 µg/mL (≈ 0.22 µM), the MIC (Klebsiella oxytoca 1082E; [13]) was 0.2 µg/mL (≈ 0.44 µM) and the MIC [2, 14] was 0.2 µg/mL (≈ 0.44 µM). The MIC [3, 15] was 0.05 µg/mL (≈ 0.11 µM), the MIC [4, 16] was 0.1 µg/mL (≈ 0.22 µM) and the MIC [5, 17] was 0.05 µg/mL (≈ 0.11 µM). The MIC (Salmonella typhimurium; [18]) was 0.2 µg/mL (≈ 0.44 µM), the MIC [6, 19] was 0.78 µg/mL (≈ 1.72 µM) and the MIC (Escherichia coli DC 2; [20]) was 0.1 µg/mL (≈ 0.22 µM).

In the case of `C[C@@H](O)[C@H]1C(=O)N2C(C(=O)O)=C(SCCN=CN)C[C@H]12` [Imipenem, (5R, 6S, 8R)-3-[[2-(formimidoylamino)ethyl]thio]-6-(1-hydroxyethyl)-7-oxo-1-azabicyclo[3.2.0]hept-ene-2-carboxylic acid hydrate, reference compound], the “renal toxicity, in words” value [10] is listed as “serious renal toxicity”, the remaining at 5 min [1] is listed as 99.2% and the remaining at 10 min [1] is listed as 97.9%. It also gave a remaining at 20 min [1] of 94.3%, a remaining at 40 min [1] of 87.7% and a remaining at 80 min [1] of 77%. The remaining at 2 h [1] was 66.6%, the metabolised at 2 h ([1]; pig, within about 2 hours from beginning of mixing incubation, read-out: decomposition ("was composed by about 40%")) was ~40% and the “antibacterial activity, times stronger than that of thienamycin” value (Pseudomonas aeruginosa) was 2 to 4 times. The “decomposition by DHP-I, in words” value [11] was “can be readily decomposed by DHP-I enzyme present in human kidney”, the MIC (Escherichia coil TEM) was 0.2 µg/mL and the MIC (Klebsiella oxytoca 1082E; Klebsiella oxytoca, 1082E, 18 h) was 0.39 µg/mL. The MIC ([2]; Klebsiella aerogenes, 1522E, 18 h) was 0.78 µg/mL, the MIC ([3]; Staphylococcus aureus, SG511, 18 h) was 0.1 µg/mL and the MIC ([4]; Pseudomonas aeruginosa, 9027, 18 h) was 0.78 µg/mL. The MIC ([5]; Enterobacter cloacae, 1321E, 18 h) was 0.2 µg/mL, the MIC (Salmonella typhimurium; TYPHIMURIUM, 18 h) was 0.78 µg/mL and the MIC ([6]; Pseudomonas aeruginosa, 1592E, 18 h) was 0.78 µg/mL. For the same compound, the MIC (Escherichia coli DC 2; Escherichia coli, DC2, 18 h) was 0.78 µg/mL and the “antibacterial activity relative to thienamycin, in words” value [12] was “equivalent to, or higher than, that of thienamycin”.
